# Key:
# Hsp27 OE A549 cells = experiment: Hsp27-overexpressing A549 cells: western blotting and flow cytometry after Erlotinib; type: cell-based, human
# Experimental: The cell viability was determined by crystal violet assay.
# The cells undergoing apoptosis (subG0/G1 fraction) were quantified using flow cytometry. FIGS. 4B and C.
# (§1) Cleaved PARP, p-EGFR(Tyr1068), EGFR, p-Hsp27(Ser82), Hsp27, and Beta-actin were assayed.
# Hsp27 mRNA = Hsp27 mRNA expression by quantitative RT-PCR in A549 cells; settings: 5 or 10 μM Erlotinib for 24 or 48 hours; normalized to GAPDH mRNA
# Experimental: Hsp27 mRNA expression was analyzed by quantitative RT-PCR. Hsp27 mRNA levels were normalized to levels of GAPDH mRNA. Bars, SD. ** and *, differ from control (P<0.01 and P<0.05, respectively).
# A549 lung cancer cells = experiment: Western blot of protein levels in A549 cells; type: cell-based, human
# Experimental: Western blots: To perform Westerns, cell lysates were prepared under non-denaturing conditions. Briefly, the cell lysates were to immunoprecipition, and subsequently immunoblotted using antibody and visualized via electrophoresis and autoradiogram.
# 48 and 72 hours of exposure.
# Protein expression was analyzed by western blotting. […] Flow cytometry was used to quantify the percentage of cells in each cell cycle phase.
# as §1
# Western gels were run on cell protein prepared under standard non-denaturing conditions, and relative levels of p-Hsp27(Ser82), Hsp27, cleaved PARP, and beta-actin were detected using commercial antibodies from Cell Signalling (Danvers, USA). Protein levels from zero to 48 hours for a 1 microMolar pemetrexed exposure were measured.
# 72 h later, cell viability was determined by crystal violet assay. […] Protein levels were also determined in these cells by immunoblotting.
# HCC827 cells = experiment: Western blot of protein levels in HCC827 parental cells; type: cell-based, human; settings: erlotinib 2.5 nanomolar; vs non-treated cells
# Source text: Levels of p-EGFR(Tyr1068), EGFR, Hsp27, Cleaved PARP, Cleaved and whole Caspase-3, and beta-actin (cell protein control) were detected.
# [1] = biological target: PKC-dependent phosphorylation of Hsp27 (Homo sapiens, UniProt P04792); settings: cited from earlier work
# Chain of PKC-dependent phosphorylation of Hsp27 (P04792 whole entry): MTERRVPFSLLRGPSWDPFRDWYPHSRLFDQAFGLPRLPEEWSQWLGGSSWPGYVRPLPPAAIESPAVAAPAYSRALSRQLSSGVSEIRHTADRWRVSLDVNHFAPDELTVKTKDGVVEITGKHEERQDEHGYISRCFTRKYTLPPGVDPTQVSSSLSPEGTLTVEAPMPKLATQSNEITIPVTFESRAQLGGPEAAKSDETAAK
# [2] = A549 OE, erlotinib 0 to 20 micromolar, 72 hours
# [3] = A549, erlotinib 0 to 20 micromolar, 72 hours
structure (smiles),measurement,setting,value
"C#Cc1cccc(Nc2ncnc3cc(OCCOC)c(OCCOC)cc23)c1 [Erlotinib, erlotinib]",Cleaved PARP (Western),Hsp27 OE A549 cells; [2],increased
same,p-EGFR(Tyr1068) (Western),Hsp27 OE A549 cells; [2],decrease
same,p-Hsp27(Ser82) (Western),Hsp27 OE A549 cells; [2],dose-dependent increase
same,apoptotic rate in cells with Hsp27 overexpression,"Hsp27 OE A549 cells; Hsp27 OE A549 vs Empty A549, varying levels of erlotinib",decreased apoptotic rate
same,Hsp27 mRNA expression,Hsp27 mRNA,increased Hsp27 expression
same,"amounts of EGFR, Hsp27 and p-Hsp27 (Western Blot)","A549 lung cancer cells; 10 μM Erlotinib, 1, 6, 24, 48 and 72 hours",Increasing amounts
same,cleaved PARP (Western Blot),"A549 lung cancer cells; 10 μM Erlotinib, 1 to 72 hours",observed at all times following 24 hours of treatment
same,p-EGFR (Tyr 1068) (Western Blot),"A549 lung cancer cells; 10 μM Erlotinib, 1 to 72 hours",not observed following treatment
same,"p-Hsp27, Hsp27, p-EGFR, EGFR, cleaved PARP (Western Blot), repeat","A549 lung cancer cells; 48 hours, erlotinib 2.5, 5 and 10 μM",Qualitatively similar results
same,Cleaved PARP (Western),A549 lung cancer cells; [3],increased
same,p-EGFR(Tyr1068) (Western),A549 lung cancer cells; [3],decrease
same,p-EGFR (Tyr068) (Western),HCC827 cells,decrease
same,"protein levels of P-Hsp27(ser82), Hsp27 (Western)",HCC827 cells,increased
"CCc1cc(-c2oncc2-c2ccc(OC)cc2)c(O)cc1OC [KRIBB3, 5-(5-Ethyl-2-hydroxy-4-methoxyphenyl)-4-(4-methoxyphenyl)isoxazole]",IC50,[1],50 nM
Nc1nc2[nH]cc(CCc3ccc(C(=O)N[C@@H](CCC(=O)O)C(=O)O)cc3)c2c(=O)[nH]1 [pemetrexed],pHsp27 and cleaved PARP signals (Western),"A549 lung cancer cells; pemetrexed 0, 0.25, 0.5, 1.0 microMoles, zero to 48 hours",increase with dose and are greatest at 48 hours

# Source: patent US9717792B2, “Combination therapy for cancer using HSP27 inhibitor and EGFR tyrosine kinase inhibitors or anti-folates” (The University Of British Columbia, priority 2012, dated 2017)
